ChEMBL document CHEMBL2384988, “Discovery of 2-{3-[2-(1-isopropyl-3-methyl-1H-1,2-4-triazol-5-yl)-5,6-dihydrobenzo[f]imidazo[1,2-d][1,4]oxazepin-9-yl]-1H-pyrazol-1-yl}-2-methylpropanamide (GDC-0032): a β-sparing phosphoinositide 3-kinase inhibitor with high unbound exposure and robust in vivo antitumor activity” (J Med Chem, 2013)
Converted amounts (≈) assume the structure as drawn. Values belong to the compound of their own block, whether it stands above or below them.

Tests used:
[1] = Oral bioavailability in mouse; type: ADME, organism-based; conditions: in vivo
[2] = Plasma protein binding in human; type: ADME, cell-free; conditions: read-out: PPB (converted)
[3] = Plasma protein binding in rat; type: ADME, cell-free; conditions: read-out: PPB (converted)
[4] = target: Serine/threonine-protein kinase mTOR (Homo sapiens, UniProt P42345); assay: Inhibition of mTOR (unknown origin)
[5] = target: DNA-dependent protein kinase catalytic subunit (Homo sapiens, UniProt P78527); assay: Inhibition of DNA-dependent protein kinase (unknown origin)
Sequence of DNA-dependent protein kinase catalytic subunit (P78527 whole entry, the tested form may be a part): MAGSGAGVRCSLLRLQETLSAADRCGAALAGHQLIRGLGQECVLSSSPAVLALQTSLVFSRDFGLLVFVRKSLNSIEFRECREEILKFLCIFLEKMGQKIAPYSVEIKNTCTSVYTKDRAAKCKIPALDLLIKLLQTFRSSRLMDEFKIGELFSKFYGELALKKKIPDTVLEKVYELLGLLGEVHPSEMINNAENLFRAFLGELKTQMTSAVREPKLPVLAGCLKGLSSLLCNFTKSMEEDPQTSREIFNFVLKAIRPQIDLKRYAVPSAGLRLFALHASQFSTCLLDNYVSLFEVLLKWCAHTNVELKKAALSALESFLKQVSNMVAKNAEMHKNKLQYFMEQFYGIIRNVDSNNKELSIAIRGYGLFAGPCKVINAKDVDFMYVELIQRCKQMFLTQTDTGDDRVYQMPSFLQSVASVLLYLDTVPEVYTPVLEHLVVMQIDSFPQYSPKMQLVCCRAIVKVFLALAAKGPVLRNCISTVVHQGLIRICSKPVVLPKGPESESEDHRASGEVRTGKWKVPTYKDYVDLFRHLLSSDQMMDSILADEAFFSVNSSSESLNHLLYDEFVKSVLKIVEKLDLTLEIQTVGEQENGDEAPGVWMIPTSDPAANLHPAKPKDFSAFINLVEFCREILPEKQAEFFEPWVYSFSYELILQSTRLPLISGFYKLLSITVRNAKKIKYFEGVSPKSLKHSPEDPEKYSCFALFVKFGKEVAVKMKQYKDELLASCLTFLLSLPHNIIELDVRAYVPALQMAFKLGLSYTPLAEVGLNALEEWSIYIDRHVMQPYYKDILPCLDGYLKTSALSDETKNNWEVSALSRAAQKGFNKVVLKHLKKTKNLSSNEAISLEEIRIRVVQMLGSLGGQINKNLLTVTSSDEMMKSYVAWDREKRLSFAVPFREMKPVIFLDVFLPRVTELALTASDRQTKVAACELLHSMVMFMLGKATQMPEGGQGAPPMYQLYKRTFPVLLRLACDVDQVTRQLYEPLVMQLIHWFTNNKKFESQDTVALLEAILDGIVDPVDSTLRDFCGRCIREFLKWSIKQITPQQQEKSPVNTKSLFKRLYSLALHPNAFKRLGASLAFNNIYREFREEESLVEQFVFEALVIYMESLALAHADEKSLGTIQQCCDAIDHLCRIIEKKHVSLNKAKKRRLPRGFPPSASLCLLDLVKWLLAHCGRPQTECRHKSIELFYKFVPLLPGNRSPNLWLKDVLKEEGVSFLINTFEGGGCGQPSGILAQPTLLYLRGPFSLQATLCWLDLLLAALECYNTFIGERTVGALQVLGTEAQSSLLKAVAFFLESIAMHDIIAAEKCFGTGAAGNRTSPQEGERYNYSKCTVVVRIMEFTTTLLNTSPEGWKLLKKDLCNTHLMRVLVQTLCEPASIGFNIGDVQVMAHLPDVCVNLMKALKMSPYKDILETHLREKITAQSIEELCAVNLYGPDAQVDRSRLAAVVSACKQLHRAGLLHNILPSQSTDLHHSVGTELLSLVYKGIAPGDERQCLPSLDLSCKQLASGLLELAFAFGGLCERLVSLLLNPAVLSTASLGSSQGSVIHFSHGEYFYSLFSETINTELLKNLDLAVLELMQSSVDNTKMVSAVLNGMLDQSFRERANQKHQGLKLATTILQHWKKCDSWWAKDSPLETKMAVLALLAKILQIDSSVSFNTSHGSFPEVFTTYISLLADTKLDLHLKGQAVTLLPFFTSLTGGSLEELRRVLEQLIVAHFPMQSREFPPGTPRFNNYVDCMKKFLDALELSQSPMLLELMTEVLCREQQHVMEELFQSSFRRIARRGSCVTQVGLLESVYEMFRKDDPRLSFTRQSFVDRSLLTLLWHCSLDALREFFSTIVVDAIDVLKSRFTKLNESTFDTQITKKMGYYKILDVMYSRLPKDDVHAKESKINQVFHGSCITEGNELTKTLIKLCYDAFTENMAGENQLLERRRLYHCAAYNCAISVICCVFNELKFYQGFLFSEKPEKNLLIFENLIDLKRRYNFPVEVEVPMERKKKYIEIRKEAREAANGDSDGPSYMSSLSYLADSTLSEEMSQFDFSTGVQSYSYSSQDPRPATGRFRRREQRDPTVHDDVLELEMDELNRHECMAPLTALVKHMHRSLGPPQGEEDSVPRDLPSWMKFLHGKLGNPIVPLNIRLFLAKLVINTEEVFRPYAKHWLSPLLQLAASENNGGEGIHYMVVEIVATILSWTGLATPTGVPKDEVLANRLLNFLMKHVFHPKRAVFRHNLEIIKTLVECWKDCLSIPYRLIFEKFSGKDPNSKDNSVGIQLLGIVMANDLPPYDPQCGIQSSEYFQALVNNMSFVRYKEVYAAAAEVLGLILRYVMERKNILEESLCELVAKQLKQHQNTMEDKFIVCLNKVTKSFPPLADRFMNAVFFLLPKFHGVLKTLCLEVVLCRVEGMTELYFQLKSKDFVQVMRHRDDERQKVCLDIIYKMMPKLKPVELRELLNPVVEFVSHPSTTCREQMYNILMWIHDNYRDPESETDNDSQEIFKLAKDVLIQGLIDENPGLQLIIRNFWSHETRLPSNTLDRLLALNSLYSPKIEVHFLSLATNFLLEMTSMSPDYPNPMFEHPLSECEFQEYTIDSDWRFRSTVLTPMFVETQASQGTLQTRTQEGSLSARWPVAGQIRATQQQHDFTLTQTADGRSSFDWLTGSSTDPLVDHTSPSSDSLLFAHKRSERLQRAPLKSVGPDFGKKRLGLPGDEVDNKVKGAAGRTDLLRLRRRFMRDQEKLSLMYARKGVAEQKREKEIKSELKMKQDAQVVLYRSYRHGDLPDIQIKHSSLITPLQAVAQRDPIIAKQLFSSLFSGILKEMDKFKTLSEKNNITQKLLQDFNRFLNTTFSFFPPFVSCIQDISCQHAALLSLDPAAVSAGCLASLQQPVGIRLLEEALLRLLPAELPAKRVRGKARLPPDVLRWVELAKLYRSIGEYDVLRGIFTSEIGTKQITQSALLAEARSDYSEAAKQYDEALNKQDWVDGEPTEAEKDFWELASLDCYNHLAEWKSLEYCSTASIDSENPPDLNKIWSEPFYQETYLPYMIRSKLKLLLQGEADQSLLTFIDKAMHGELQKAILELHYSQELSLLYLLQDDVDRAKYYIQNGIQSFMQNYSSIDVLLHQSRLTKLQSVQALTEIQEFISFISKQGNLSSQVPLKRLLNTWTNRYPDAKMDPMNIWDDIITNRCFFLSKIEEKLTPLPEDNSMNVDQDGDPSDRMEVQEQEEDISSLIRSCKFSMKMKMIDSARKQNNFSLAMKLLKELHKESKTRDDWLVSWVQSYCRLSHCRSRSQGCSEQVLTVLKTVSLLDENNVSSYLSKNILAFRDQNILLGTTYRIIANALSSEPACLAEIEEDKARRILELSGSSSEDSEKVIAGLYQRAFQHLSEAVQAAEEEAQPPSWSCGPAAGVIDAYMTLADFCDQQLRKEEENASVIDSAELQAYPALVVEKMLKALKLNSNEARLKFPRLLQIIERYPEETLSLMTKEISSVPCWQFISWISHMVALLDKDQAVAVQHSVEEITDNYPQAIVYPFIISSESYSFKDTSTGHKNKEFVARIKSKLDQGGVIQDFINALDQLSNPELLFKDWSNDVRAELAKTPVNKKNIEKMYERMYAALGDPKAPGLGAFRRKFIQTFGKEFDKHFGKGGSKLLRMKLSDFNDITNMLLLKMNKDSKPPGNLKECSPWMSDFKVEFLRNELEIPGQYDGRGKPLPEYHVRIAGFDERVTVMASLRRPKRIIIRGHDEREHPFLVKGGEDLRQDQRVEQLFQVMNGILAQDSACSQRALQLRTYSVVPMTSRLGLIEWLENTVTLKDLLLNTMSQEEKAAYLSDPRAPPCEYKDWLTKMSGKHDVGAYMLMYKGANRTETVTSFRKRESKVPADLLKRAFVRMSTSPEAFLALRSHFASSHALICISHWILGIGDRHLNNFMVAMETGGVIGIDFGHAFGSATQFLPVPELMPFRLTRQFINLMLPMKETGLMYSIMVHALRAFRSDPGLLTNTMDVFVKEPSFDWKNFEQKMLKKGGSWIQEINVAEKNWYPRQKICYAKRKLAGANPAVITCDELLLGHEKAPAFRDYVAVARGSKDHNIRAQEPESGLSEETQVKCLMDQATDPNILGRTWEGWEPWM

[6] = target: Phosphatidylinositol 4-phosphate 3-kinase C2 domain-containing subunit alpha (Homo sapiens, UniProt O00443); assay: Inhibition of PI3KC2alpha (unknown origin)
PC-3 = assay: Cytotoxicity against human PC3 cells; type: functional, cell-based
[7] = Oral bioavailability in Sprague-Dawley rat; type: ADME, organism-based; conditions: in vivo
[8] = Plasma clearance in Sprague-Dawley rat; type: ADME, organism-based
[9] = target: Phosphatidylinositol 3-kinase catalytic subunit type 3 (Homo sapiens, UniProt Q8NEB9); assay: Inhibition of human VPS34
Mus musculus [10] = assay: In vivo inhibition of PI3Kalpha in human MCF7-neo/Her2 cells xenografted in nude mouse assessed as reduction in AKT phosphorylation at S473 at 2.8 mg/kg, po measured after 1 hr; type: functional; design: scale not given: the % may be the effect or the level left
Mus musculus [11] = assay: Toxicity in nude mouse xenografted with human MCF7-neo/Her2 cells assessed as body weight loss relative to vehicle-treated control; type: organism-based
[12] = target: Phosphatidylinositol 4-phosphate 3-kinase C2 domain-containing subunit beta (Homo sapiens, UniProt O00750); assay: Inhibition of PI3KC2beta (unknown origin)
Mus musculus [13] = assay: Unbound AUC in nude mouse at 1 mg/kg, iv and 25 mg/kg, po; type: ADME, organism-based; conditions: in vivo
[14] = (§1) AUCtotal in nude mouse at 1 mg/kg, iv and 25 mg/kg, po; type: ADME, organism-based, Plasma; conditions: nude, plasma
Mus musculus [15] = assay: Unbound clearance in nude mouse at 1 mg/kg, iv and 25 mg/kg, po; type: ADME, organism-based; conditions: in vivo
Plasma = assay: (§2) Plasma protein binding in mouse by equilibrium dialysis; type: ADME, cell-free
[16] = Plasma clearance in nude mouse at 1 mg/kg, iv and 25 mg/kg, po; type: ADME, organism-based
[17] = Kinetic solubility of the compound; type: physicochemical; conditions: read-out: Kinetic_solubility
[18] = Intrinsic clearance in mouse liver microsomes after 1 hr by LC-MS/MS analysis; type: ADME, Microsome; conditions: read-out: CLH
[19] = target: T1, Phosphatidylinositol 4,5-bisphosphate 3-kinase catalytic subunit delta isoform (Homo sapiens) (UniProt O00329); conditions: 1 uM
T1 sequence (whole entry): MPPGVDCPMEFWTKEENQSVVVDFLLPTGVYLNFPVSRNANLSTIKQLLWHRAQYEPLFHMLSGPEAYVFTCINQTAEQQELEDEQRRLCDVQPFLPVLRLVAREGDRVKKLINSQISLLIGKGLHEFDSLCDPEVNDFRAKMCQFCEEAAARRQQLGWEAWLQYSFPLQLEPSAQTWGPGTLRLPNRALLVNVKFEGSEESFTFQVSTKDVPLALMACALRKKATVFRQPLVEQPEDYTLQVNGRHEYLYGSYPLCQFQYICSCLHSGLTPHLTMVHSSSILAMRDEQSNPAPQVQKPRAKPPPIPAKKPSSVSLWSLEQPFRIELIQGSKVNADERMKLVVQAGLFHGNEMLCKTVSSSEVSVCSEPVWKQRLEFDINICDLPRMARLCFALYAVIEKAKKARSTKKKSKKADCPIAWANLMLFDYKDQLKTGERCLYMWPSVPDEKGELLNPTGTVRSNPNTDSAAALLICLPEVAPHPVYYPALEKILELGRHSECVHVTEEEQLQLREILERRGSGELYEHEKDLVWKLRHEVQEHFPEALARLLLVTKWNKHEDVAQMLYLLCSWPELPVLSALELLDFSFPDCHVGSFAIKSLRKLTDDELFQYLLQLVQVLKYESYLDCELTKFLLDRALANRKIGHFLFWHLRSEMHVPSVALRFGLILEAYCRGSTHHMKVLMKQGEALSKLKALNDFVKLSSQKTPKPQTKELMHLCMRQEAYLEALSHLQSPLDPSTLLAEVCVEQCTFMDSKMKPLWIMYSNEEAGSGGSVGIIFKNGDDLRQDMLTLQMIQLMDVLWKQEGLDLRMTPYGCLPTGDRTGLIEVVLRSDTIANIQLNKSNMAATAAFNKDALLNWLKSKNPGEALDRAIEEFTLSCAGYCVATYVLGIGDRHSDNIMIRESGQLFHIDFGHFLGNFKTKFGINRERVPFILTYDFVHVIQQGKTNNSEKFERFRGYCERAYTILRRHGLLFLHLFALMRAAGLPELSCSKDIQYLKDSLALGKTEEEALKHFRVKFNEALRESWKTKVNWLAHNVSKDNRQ
Description: Inhibition of PI3Kdelta (unknown origin) at 1 uM

[20] = target: T2, Phosphatidylinositol 4,5-bisphosphate 3-kinase catalytic subunit alpha isoform (Homo sapiens, UniProt P42336); conditions: 1 uM
T2 sequence (P42336 whole entry, canonical isoform): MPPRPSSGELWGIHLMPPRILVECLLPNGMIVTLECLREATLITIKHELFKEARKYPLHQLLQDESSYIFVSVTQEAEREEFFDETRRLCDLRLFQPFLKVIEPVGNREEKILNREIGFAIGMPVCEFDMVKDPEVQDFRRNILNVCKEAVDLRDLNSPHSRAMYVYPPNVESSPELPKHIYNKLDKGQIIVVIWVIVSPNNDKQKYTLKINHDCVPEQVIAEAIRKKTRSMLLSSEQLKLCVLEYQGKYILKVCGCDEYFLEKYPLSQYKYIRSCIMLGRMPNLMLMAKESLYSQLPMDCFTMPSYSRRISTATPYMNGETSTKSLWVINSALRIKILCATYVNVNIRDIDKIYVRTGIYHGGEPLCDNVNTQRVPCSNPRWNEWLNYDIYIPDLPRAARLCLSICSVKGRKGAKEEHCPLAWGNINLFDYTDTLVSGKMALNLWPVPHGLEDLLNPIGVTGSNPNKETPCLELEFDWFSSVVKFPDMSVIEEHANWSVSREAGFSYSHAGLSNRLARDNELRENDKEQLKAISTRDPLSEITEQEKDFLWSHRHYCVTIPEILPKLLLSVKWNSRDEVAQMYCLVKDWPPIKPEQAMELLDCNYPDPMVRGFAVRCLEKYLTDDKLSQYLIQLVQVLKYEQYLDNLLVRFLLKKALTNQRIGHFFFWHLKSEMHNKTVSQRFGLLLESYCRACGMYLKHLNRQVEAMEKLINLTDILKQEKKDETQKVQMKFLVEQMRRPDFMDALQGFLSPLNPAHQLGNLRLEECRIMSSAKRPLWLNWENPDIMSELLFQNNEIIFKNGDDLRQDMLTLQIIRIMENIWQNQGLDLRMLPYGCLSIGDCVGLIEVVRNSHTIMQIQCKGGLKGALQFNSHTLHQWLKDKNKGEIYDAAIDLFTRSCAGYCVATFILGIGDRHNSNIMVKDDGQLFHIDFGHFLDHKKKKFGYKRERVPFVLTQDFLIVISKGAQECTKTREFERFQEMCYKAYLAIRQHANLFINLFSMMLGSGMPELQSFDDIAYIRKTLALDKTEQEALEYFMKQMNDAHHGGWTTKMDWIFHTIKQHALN
Description: Inhibition of PI3Kalpha (unknown origin) at 1 uM

cells = conditions: Homo sapiens
Description: Cytotoxicity against human MCF7-neo/Her2 cells after 3 to 4 days by CellTitre-Glo assay

animal or person [21] = conditions: Homo sapiens, po, 480 h, read-out: TGI
Description: Antitumor activity against human MCF7-neo/Her2 cells xenografted in nude mouse at 22.5 mg/kg, po qd for 20 days relative to vehicle-treated control

animal or person [22] = conditions: Homo sapiens, po, 480 h, read-out: TGI; remark: listed apart in the source
Description: Antitumor activity against human MCF7-neo/Her2 cells xenografted in nude mouse at 11.25 mg/kg, po qd for 20 days relative to vehicle-treated control

[23] = target: T2, Phosphatidylinositol 4,5-bisphosphate 3-kinase catalytic subunit alpha isoform
Description: Inhibition of PI3Kalpha in human MCF7-neo/Her2 cells assessed as reduction of AKT phosphorylation at S473

[24] = target: T2, Phosphatidylinositol 4,5-bisphosphate 3-kinase catalytic subunit alpha isoform; remark: listed apart in the source
Description: Inhibition of PI3Kalpha (unknown origin) assessed as 3,4,5-inositoltriphosphate formation after 30 mins by fluorescence polarization assay

Mus musculus [25] = assay: Unbound AUC in nude mouse at 100 mg/kg, po; type: ADME, organism-based; design: dose 100 mg/kg, route oral; conditions: in vivo
[26] = AUCtotal in nude mouse at 100 mg/kg, po; type: ADME, organism-based; design: time AUCmax, dose 100 mg/kg, route oral; conditions: plasma
[27] = as §2; type: ADME, cell-free; conditions: read-out: PPB (converted)
Mus musculus [28] = assay: as §1; type: ADME, organism-based, Plasma; conditions: in vivo

bioavailability [1]: 100% | fraction unbound [2]: 0.24 | fraction unbound [3]: 0.02 | Ki [4]: 1200 nM | IC50 [5]: > 4800 nM | IC50 [6]: > 10000 nM | bioavailability [7]: 99% | clearance [8]: 1.8 mL/min/kg | IC50 [9]: 374 nM | IC50 [12]: 292 nM | fAUC (Mus musculus [13]): 42 µM·h | AUC [14]: 388 µM·h | CL free (Mus musculus [15]): 25 mL/min/kg | PPB (Plasma): 89.3% | clearance [16]: 2.7 mL/min/kg | solubility kinetic [17]: 33.1 µM (≈ 15.2 µg/mL) | CLint scaled [18]: 41.1 mL/min/kg | inhibition [19]: 97.9% | inhibition [20]: 98.6% | IC50 (cells): 25 nM
Compound: Cc1nc(-c2cn3c(n2)-c2ccc(-c4cnn(C(C)(C)C(N)=O)c4)cc2OCC3)n(C(C)C)n1 [TASELISIB]
EC50 (PC-3): 571 nM | Activity (Mus musculus [10]): 59% | Activity (Mus musculus [11]): < 10% | inhibition in vivo at 22.5 mg/kg (animal or person [21]): 123% | inhibition in vivo at 11.25 mg/kg (animal or person [22]): 103%

solubility kinetic [17]: 5.1 µM (≈ 2.07 µg/mL) | CLint scaled [18]: 42.9 mL/min/kg | IC50 [23]: 5.4 nM | Ki [24]: 0.17 nM | IC50 (cells): 92 nM
Compound: CC(C)n1ncnc1-c1cn2c(n1)-c1ccc(-c3cnn(CCO)c3)cc1OCC2

solubility kinetic [17]: 78.2 µM (≈ 39.3 µg/mL) | CLint scaled [18]: 23 mL/min/kg | IC50 [23]: 0.93 nM | Ki [24]: 0.34 nM | IC50 (cells): 102 nM
Compound: Cc1nc(-c2cn3c(n2)-c2ccc(-c4cnn(C5CN(C(=O)[C@H](C)O)C5)c4)cc2OCC3)n(C(C)C)n1

solubility kinetic [17]: 95.8 µM (≈ 36.2 µg/mL) | Ki [24]: 21.1 nM | IC50 (cells): > 10000 nM
Compound: Cc1n[nH]c(-c2cn3c(n2)-c2ccc(-c4cnn(CCO)c4)cc2OCC3)n1

solubility kinetic [17]: 109 µM (≈ 51.7 µg/mL) | CLint scaled [18]: 58 mL/min/kg | IC50 [23]: 1.4 nM | Ki [24]: 0.11 nM | IC50 (cells): 120 nM
Compound: Cc1nc(-c2cn3c(n2)-c2ccc(-c4cnn(C5CN(CCO)C5)c4)cc2OCC3)n(C(C)C)n1

solubility kinetic [17]: < 1 µM | CLint scaled [18]: 550 mL/min/kg | Ki [24]: 0.31 nM | IC50 (cells): 218 nM
Compound: CC(C)n1ncnc1-c1cn2c(n1)-c1ccc(-c3cn[nH]c3)cc1OCC2

solubility kinetic [17]: 2.4 µM (≈ 0.939 µg/mL) | CLint scaled [18]: 100 mL/min/kg | Ki [24]: 2.8 nM | IC50 (cells): 1400 nM
Compound: Cc1nc(-c2cn3c(n2)-c2ccc(-c4cnn(CCO)c4)cc2OCC3)n(C)n1

solubility kinetic [17]: 7.6 µM (≈ 3.39 µg/mL) | CLint scaled [18]: 28 mL/min/kg | IC50 [23]: 2.9 nM | Ki [24]: < 1 nM | IC50 (cells): 66 nM
Compound: OCCn1cc(-c2ccc3c(c2)OCCn2cc(-c4ncnn4CC(F)(F)F)nc2-3)cn1

solubility kinetic [17]: 52.3 µM (≈ 25.6 µg/mL) | CLint scaled [18]: 89.4 mL/min/kg | IC50 [23]: 35 nM | Ki [24]: 0.3 nM | IC50 (cells): 248 nM
Compound: Cc1nc(-c2cn3c(n2)-c2ccc(-c4cnn(CCN5CCOCC5)c4)cc2OCC3)n(C(C)C)n1

fAUC (Mus musculus [25]): 0.55 µM·h | AUC [26]: 275 µM·h | fAUC (Mus musculus [13]): 0.22 µM·h | AUC [14]: 112 µM·h | CL free (Mus musculus [15]): 4750 mL/min/kg | fraction unbound [27]: 0.002 | IC50 (cells): 195 nM
Compound: CC(C)n1ncnc1-c1nc2c(s1)CCOc1cc(-c3cnn(CCO)c3)ccc1-2

fAUC (Mus musculus [13]): 2.7 µM·h | AUC (Mus musculus [28]): 156 µM·h | CL free (Mus musculus [15]): 282 mL/min/kg | fraction unbound [27]: 0.017 | solubility kinetic [17]: 12.4 µM (≈ 5.38 µg/mL) | CLint scaled [18]: 44.3 mL/min/kg | IC50 [23]: 9.4 nM | Ki [24]: 0.14 nM | IC50 (cells): 81 nM
Compound: CC(C)n1ncnc1-c1cn2c(n1)-c1ccc(-c3cnn(CC(C)(C)O)c3)cc1OCC2

fAUC (Mus musculus [25]): 3.5 µM·h | AUC [26]: 80.3 µM·h
Compound: CS(=O)(=O)N1CCN(Cc2cc3nc(-c4cccc5[nH]ncc45)nc(N4CCOCC4)c3s2)CC1 [PICTILISIB]
Activity (Mus musculus [11]): < 10%

solubility kinetic [17]: 2 µM (≈ 0.779 µg/mL) | CLint scaled [18]: 82 mL/min/kg | IC50 [23]: 0.71 nM | Ki [24]: 0.29 nM | IC50 (cells): 157 nM
Compound: Cc1nc(-c2cn3c(n2)-c2ccc(-c4cnn(C)c4)cc2OCC3)n(C(C)C)n1

fAUC (Mus musculus [13]): 5.2 µM·h | AUC (Mus musculus [28]): 291 µM·h | CL free (Mus musculus [15]): 83 mL/min/kg | fraction unbound [27]: 0.018 | CLint scaled [18]: 68.1 mL/min/kg | IC50 [23]: 4.5 nM | IC50 (cells): 138 nM
Compound: Cc1nc(-c2cn3c(n2)-c2ccc(-c4cnn(CCO)c4)cc2OCC3)n(C(C)C)n1
